In article PMC6199744, “Development of Chemical Proteomics for the Folateome and Analysis of the Kinetoplastid Folateome” (ACS Infectious Diseases, 2018):

Test system: L. major lysate proteins
Test: Multitargeted bead mixture chemoproteomics, single concentration competition, proteome-wide
Assay type: binding

Nc1nc2c(c(=O)[nH]1)N(C=O)C(CNc1ccc(C(=O)N[C@@H](CCC(=O)O)C(=O)O)cc1)CN2 (stereo partly drawn) [LEU, leucovorin]
fold change relative to vehicle control (protein LMJF.35.1220, SHORT CHAIN DEHYDROGENASE, PUTATIVE): 1.29 | fold change relative to vehicle control (protein LMJF.35.1380, MITOCHONDRIAL PROCESSING PEPTIDASE, BETA SUBUNIT, PUTATIVE): 0.96 | fold change vs vehicle control (protein LMJF.35.1830 HY[…], CONSERVED): 1.03 | fold change vs vehicle control (protein LMJF.35.3340 6-phosphogluconate dehydrogenase): 1.03 | fold change (protein LMJF.35.3700 GIM5A PROTEIN, PUTATIVE,GLYCOSOMAL MEMBRANE PROTEIN, vehicle control = 1): 0.87 | fold change vs vehicle control (protein LMJF.35.3760 60S RIBOSOMAL PROTEIN L27A/L29, PUTATIVE): 1.05 | fold change relative to vehicle control (protein LMJF.35.3840, […] 2 SUBUNIT, PUTATIVE): 1.16 | fold change vs vehicle control (protein LMJF.35.3860 T-COMPLEX PROTEIN 1, ETA SUBUNIT, PUTATIVE): 0.98 | fold change (protein LMJF.35.4420 MITOCHONDRIAL PHOSPHATE TRANSPORTER, PUTATIVE, vehicle control = 1): 1 | fold change relative to vehicle control (protein LMJF.35.4880, HYPOTHETICAL PROTEIN, CONSERVED (TPR repeat, putative)): 1.3 | fold change relative to vehicle control (protein LMJF.35.5330, ISOPENTENYL-D[…]-ISOMERASE, PUTATIVE): 1.06 | fold change relative to vehicle control (protein LMJF.36.0070, STRESS-INDUCIBLE PROTEIN STI1 HOMOLOG): 1.81 | fold change (protein LMJF.36.0480 HYPOTHETICAL PROTEIN, CONSERVED, vehicle control = 1): 1 | fold change vs vehicle control (protein LMJF.36.0620 HYPOTHETICAL PROTEIN, CONSERVED): 0.9 | fold change vs vehicle control (protein LMJF.36.0930 40S RIBOSOMAL PROTEIN S18, PUTATIVE): 1.19 | fold change vs vehicle control (protein LMJF.36.0990 40S RIBOSOMAL PROTEIN S10, PUTATIVE): 0.91 | fold change (protein LMJF.36.1140 SHORT CHAIN 3-HYDROXYACYL-COA DEHYDROGENASE, PUTATIVE, vehicle control = 1): 0.94 | fold change relative to vehicle control (protein LMJF.36.1260, FRUCTOSE-1,6-BI[…]): 1.16 | fold change (protein LMJF.36.1340 N-ACETYLTRANSFERASE SUBUNIT NAT1, PUTATIVE, vehicle control = 1): 0.92 | fold change vs vehicle control (protein LMJF.36.1650 PROTEASOME BETA 5 SUBUNIT, PUTATIVE): 0.98 | fold change relative to vehicle control (protein LMJF.36.2380, STEROL 24-C-METHYLTRANSFERASE, PUTATIVE): 1.04 | fold change vs vehicle control (protein LMJF.36.2950 SUCCINYL-COA LIGASE GDP-FORMING] BETA-CHAIN, PUTATIVE): 0.96 | fold change vs vehicle control (protein LMJF.36.3210 14-3-3 PROTEIN-LIKE PROTEIN): 1.08 | fold change vs vehicle control (protein LMJF.36.3410 SHORT CHAIN DEHYDROGENASE-LIKE PROTEIN): 0.97 | fold change (protein LMJF.36.3460 HYPOTHETICAL PROTEIN, CONSERVED (NIPSNAP, putative), vehicle control = 1): 0.75 | fold change (protein LMJF.36.3580 HYPOTHETICAL PROTEIN, CONSERVED (Protein of unknown function (DUF2009), putative), vehicle control = 1): 0.85 | fold change (protein LMJF.36.3750 40S RIBOSOMAL PROTEIN S27-1, PUTATIVE, vehicle control = 1): 0.85 | fold change vs vehicle control (protein LMJF.36.3910 S-ADENOSYLHOMOCYSTEINE HYDROLASE): 0.94 | fold change vs vehicle control (protein LMJF.36.5010 40S RIBOSOMAL PROTEIN SA, PUTATIVE): 1.03 | fold change vs vehicle control (protein LMJF.36.5130 HY[…], CONSERVED): 1.01 | fold change vs vehicle control (protein LMJF.36.5150 HYPOTHETICAL PROTEIN, CONSERVED): 0.93 | fold change relative to vehicle control (protein LMJF.36.5380, NADH DEHYDROGENASE, PUTATIVE): 1.07 | fold change vs vehicle control (protein LMJF.36.5390 PHOSPHORIBOSYLPYROPHOSPHATE SYNTHETASE, PUTATIVE): 0.99 | fold change vs vehicle control (protein LMJF.36.5620 ISOLEUCYL-TRNA SYNTHETASE, PUTATIVE): 0.94 | fold change (protein LMJF.36.6430 PROTEIN TRANSPORT PROTEIN SEC23-LIKE PROTEIN, vehicle control = 1): 1.17 | fold change vs vehicle control (protein LMJF.36.6760 HYPOTHETICAL PROTEIN, CONSERVED): 0.87 | fold change relative to vehicle control (protein LMJF.[…], MIT[…] BETA SUBUNIT, PUTATIVE): 1.14 | fold change relative to vehicle control (protein LMJF.[…], POLY(A) EXPORT PROTEIN, PUTATIVE): 1.24 | fold change (vs vehicle control, protein LINJ.20.0630 CYTIDINE TRIPHOSPHATE SYNTHASE, PUTATIVE,CTP SYNTHASE, PUTATIVE): 0.91 | fold change (vs vehicle control, protein LINJ.20.1390 COATOMER BETA SUBUNIT, PUTATIVE): 0.96 | fold change (vs vehicle control, protein LMJF.05.1140 VACUOLAR ATPASE SUBUNIT-LIKE PROTEIN): 0.75 | fold change (vs vehicle control, protein LMJF.07.1090 DELTA-5 FATTY ACID DESATURASE): 0.88 | fold change (vs vehicle control, protein LMJF.09.0220 HYPOTHETICAL PROTEIN, CONSERVED): 0.73 | fold change (vs vehicle control, protein LMJF.11.1030 HYPOTHETICAL PROTEIN, CONSERVED): 0.86 | fold change (vs vehicle control, protein LMJF.14.0640 FATTY ACID ELONGASE, PUTATIVE): 0.71 | fold change (vs vehicle control, protein LMJF.14.0705 FATTY ACID ELONGASE, PUTATIVE): 0.92 | fold change (vs vehicle control, protein LMJF.14.1120 KINESIN K39, PUTATIVE): 0.96 | fold change (vs vehicle control, protein LMJF.16.1610 PROHIBITIN): 1.01 | fold change (vs vehicle control, protein LMJF.17.0010 HYPOTHETICAL PROTEIN, CONSERVED): 0.94 | fold change (vs vehicle control, protein LMJF.18.1130 RAS-RELATED PROTEIN RAB-5, PUTATIVE): 0.82 | fold change (vs vehicle control, protein LMJF.19.1420 CYSTEINE PEPTIDASE A (CPA)): 0.84 | fold change (vs vehicle control, protein LMJF.21.0280 HY[…], CONSERVED): 0.97 | fold change (vs vehicle control, protein LMJF.22.1560 40S RIBOSOMAL PROTEIN L14, PUTATIVE): 0.93 | fold change (vs vehicle control, protein LMJF.23.1220 T-COMPLEX PROTEIN 1, GAMMA SUBUNIT, PUTATIVE): 0.94 | fold change (vs vehicle control, protein LMJF.24.0370 ASPARTATE AMINOTRANSFERASE, PUTATIVE): 0.99 | fold change (vs vehicle control, protein LMJF.25.1770 ENOYL-COA REDUCTASE, PUTATIVE): 0.97 | fold change (vs vehicle control, protein LMJF.26.0170 60S RIBOSOMAL PROTEIN L7, PUTATIVE): 0.85 | fold change (vs vehicle control, protein LMJF.26.1550 TRI[…] ALPHA SUBUNIT, MIT[…]-LIKE PROTEIN): 1.09 | fold change (vs vehicle control, protein LMJF.26.1610 PROLINE OXIDASE, MITOCHONDRIAL PRECURSOR-LIKE PROTEIN): 0.79 | fold change (vs vehicle control, protein LMJF.28.1950 X-PRO, DIPEPTIDYL-PEPTIDASE,SERINE PEPTIDASE, CLAN SC, FAMILY S15, PUTATIVE): 0.96 | fold change (vs vehicle control, protein LMJF.31.1070 BIOTIN/LIPOATE PROTEIN LIGASE-LIKE PROTEIN): 0.88 | fold change (vs vehicle control, protein LMJF.32.1370 HY[…], CONSERVED): 0.92 | fold change (vs vehicle control, protein LMJF.34.0490 IMPORTIN BETA-1 SUBUNIT, PUTATIVE): 1.14 | fold change (vs vehicle control, protein LMJF.34.4060 UBIQUITIN HYDROLASE, PUTATIVE,CYSTEINE PEPTIDASE, CLAN CA, FAMILY C19, PUTATIVE): 0.88 | fold change (vs vehicle control, protein LMJF.36.1600 PROTEASOME ALPHA 1 SUBUNIT, PUTATIVE): 0.98 | fold change (vs vehicle control, protein LMJF.[…] RIBOSOMAL PROTEIN S7, PUTATIVE): 0.99
